Test results: patent US20150209315A1 (Cumberland Pharmaceuticals, priority 2009, published 2015)

Tested on: post-operative adult patients
Assay: Example 1: patient self-assessment of pain, VAS with movement
Assay type: in vivo, human
Design: key to VAS Score measured with Movement (median): VAS 0-10: 0 = no pain, 10 = intense pain
Experimental: Pain was measured by the patient's self-assessment using a Visual Analog Scale (VAS) from 0-10 with 0 being no pain and 10 being intense pain. This was measured both at rest and with movement. […] […] To account for the missing pain assessments, two missing value approaches as described in the statistical analysis plan were used to impute values. To determine the difference in overall pain at differing time-points, the area under the VAS pain curve during the first 24 hours, between 6 and 24 hours and between 12 and 24 hours were analyzed.

## CC(C)Cc1ccc(C(C)C(=O)O)cc1 (centres unmarked) [Ibuprofen, 2-(4-isobutylphenyl) propionic acid]
400 mg, ITT, 45-Hour
  VAS Score measured with Movement (median): 3.3
  VAS Score measured with Movement, % Reduction vs Placebo: −6.5%
400 mg, ITT, 48-Hour
  VAS Score measured with Movement (median): 3.2
  VAS Score measured with Movement, % Reduction vs Placebo: −39.1%
800 mg, EEP, 1-Hour
  VAS Score measured with Movement (median): 7.8
  VAS Score measured with Movement, % Reduction vs Placebo: 2.5%
800 mg, EEP, 2-Hour
  VAS Score measured with Movement (median): 7.0
  VAS Score measured with Movement, % Reduction vs Placebo: 1.4%
800 mg, EEP, 3-Hour
  VAS Score measured with Movement (median): 6.1
  VAS Score measured with Movement, % Reduction vs Placebo: −1.7%
800 mg, EEP, 6-Hour
  VAS Score measured with Movement (median): 5.6
  VAS Score measured with Movement, % Reduction vs Placebo: −12.0%
800 mg, EEP, 9-Hour
  VAS Score measured with Movement (median): 4.8
  VAS Score measured with Movement, % Reduction vs Placebo: 4.0%
800 mg, EEP, 12-Hour
  VAS Score measured with Movement (median): 4.4
800 mg, EEP, 15-Hour
  VAS Score measured with Movement (median): 4.2
  VAS Score measured with Movement, % Reduction vs Placebo: 16.0%
800 mg, EEP, 18-Hour
  VAS Score measured with Movement (median): 4.0
  VAS Score measured with Movement, % Reduction vs Placebo: 20.0%
800 mg, EEP, 21-Hour
  VAS Score measured with Movement (median): 3.7
  VAS Score measured with Movement, % Reduction vs Placebo: 26.0%
800 mg, EEP, 24-Hour
  VAS Score measured with Movement (median): 3.6
  VAS Score measured with Movement, % Reduction vs Placebo: 18.2%
800 mg, EEP, 27-Hour
  VAS Score measured with Movement (median): 3.7
  VAS Score measured with Movement, % Reduction vs Placebo: 17.8%
800 mg, EEP, 30-Hour
  VAS Score measured with Movement (median): 3.6
800 mg, EEP, 33-Hour
  VAS Score measured with Movement (median): 3.6
  VAS Score measured with Movement, % Reduction vs Placebo: 5.3%
800 mg, EEP, 36-Hour
  VAS Score measured with Movement (median): 3.4
800 mg, EEP, 39-Hour
  VAS Score measured with Movement (median): 3.8
  VAS Score measured with Movement, % Reduction vs Placebo: −11.8%
800 mg, EEP, 42-Hour
  VAS Score measured with Movement (median): 3.2
  VAS Score measured with Movement, % Reduction vs Placebo: 8.6%
800 mg, EEP, 45 Hour
  VAS Score measured with Movement (median): 2.8
  VAS Score measured with Movement, % Reduction vs Placebo: 9.7%
800 mg, EEP, 48-Hour
  VAS Score measured with Movement (median): 2.1
800 mg, ITT, 1-Hour
  VAS Score measured with Movement (median): 7.3
  VAS Score measured with Movement, % Reduction vs Placebo: 8.8%
800 mg, ITT, 2-Hour
  VAS Score measured with Movement (median): 6.8
  VAS Score measured with Movement, % Reduction vs Placebo: 6.8%
800 mg, ITT, 3-Hour
  VAS Score measured with Movement (median): 6.0
  VAS Score measured with Movement, % Reduction vs Placebo: 4.8%
800 mg, ITT, 6-Hour
  VAS Score measured with Movement (median): 5.3
  VAS Score measured with Movement, % Reduction vs Placebo: 7.0%
800 mg, ITT, 9-Hour
  VAS Score measured with Movement (median): 4.6
800 mg, ITT, 12-Hour
  VAS Score measured with Movement (median): 4.3
  VAS Score measured with Movement, % Reduction vs Placebo: 14.0%
800 mg, ITT, 15-Hour
  VAS Score measured with Movement (median): 4.2
  VAS Score measured with Movement, % Reduction vs Placebo: 16.0%
800 mg, ITT, 18-Hour
  VAS Score measured with Movement (median): 4.0
  VAS Score measured with Movement, % Reduction vs Placebo: 20.0%
800 mg, ITT, 21-Hour
  VAS Score measured with Movement (median): 3.8
  VAS Score measured with Movement, % Reduction vs Placebo: 22.4%
800 mg, ITT, 24-Hour
  VAS Score measured with Movement (median): 3.7
  VAS Score measured with Movement, % Reduction vs Placebo: 17.8%
800 mg, ITT, 27 Hour
  VAS Score measured with Movement (median): 3.6
  VAS Score measured with Movement, % Reduction vs Placebo: 18.2%
800 mg, ITT, 30-Hour
  VAS Score measured with Movement (median): 3.5
800 mg, ITT, 33-Hour
  VAS Score measured with Movement (median): 3.5
  VAS Score measured with Movement, % Reduction vs Placebo: 7.9%
800 mg, ITT, 36-Hour
  VAS Score measured with Movement (median): 3.5
800 mg, ITT, 39-Hour
  VAS Score measured with Movement (median): 3.7
  VAS Score measured with Movement, % Reduction vs Placebo: -5.7%
800 mg, ITT, 42-Hour
  VAS Score measured with Movement (median): 3.3
  VAS Score measured with Movement, % Reduction vs Placebo: 2.9%
800 mg, ITT, 45-Hour
  VAS Score measured with Movement (median): 2.7
800 mg, ITT, 48-Hour
  VAS Score measured with Movement (median): 2.1
  VAS Score measured with Movement, % Reduction vs Placebo: 8.7%
